Assay results as given in patent US12502384B2, “Pharmaceutical composition containing nitroxoline prodrug, and preparation method and application therefor” (Jiangsu Yahong Meditech Co., Ltd., priority 2020, dated 2025).

Assay: Stability test: impurity content by HPLC (self-control)
Type: physicochemical
Conditions: for Impurity (%)/RRT relative retention time 0.71 / Impurity (%)/RRT relative retention time 0.78 / Impurity (%)/RRT relative retention time 0.83 / Impurity (%)/RRT relative retention time 0.89 / Impurity (%)/RRT relative retention time 0.9 / Impurity (%)/RRT relative retention time 1.06 / Impurity (%)/RRT relative retention time 1.95 / Impurity (%)/RRT relative retention time 0.93 / Impurity (%)/RRT relative retention time 1.97: — = not detected
Experimental: The impurity content of the immediate-release tablets obtained in Examples 1, 3, and 8 was determined respectively to evaluate the stability, and the steps were as follows:
1. Preparation Method for Test Solution I and Test Solution II
About 25 mg of a batch of nitroxoline prodrug was added to a 50 mL volumetric flask, followed by the addition of about 30 mL of acetonitrile. The resulting solution was ultrasonicated for 10 minutes, cooled to room temperature, diluted with acetonitrile to the constant volume, and mixed well. An appropriate amount of the above solution was filtered to obtain test solution I.
According to the above method, another batch of nitroxoline prodrug was used to obtain test solution II.
Test solution I was used to study the impurity content under normal temperature and different storage times (0 h, 6 h, 12 h, 18 h, 24 h), and the impurity content under 2 to 8° C. and a storage time of 24 hours.
Test solution II was used to study the impurity content under two different stability conditions (intermediate condition of 30° C./65% RH and accelerated condition of 40° C./75% RH, as shown in Table 2).
2. […]
3. Preparation Method for 0.2% Self-Control Solution
2 mL of test solution I, test solution II or test solution III was added to a 100 mL volumetric flask, and diluted with acetonitrile to the constant volume. 1 mL of the resulting solution was added to a 10 mL volumetric flask, diluted with acetonitrile to the constant volume, and mixed well to obtain the desired solution.
4. Determination of Impurity Content
(§1) Test solution I was placed at room temperature, and samples were collected respectively at 0 h, 6 h, 12 h, 18 h, 24 h. 0.2% self-control solution was formulated. Samples were injected respectively, and the single impurity content and total impurity content in test solution I at each time point were calculated according to the self-control.
as §1, with “in a refrigerator (2 to 8° C.),” for “at room temperature,”, “collected” for “collected respectively”, “at” for “at 0 h, 6 h, 12 h, 18 h,”, “this” for “each”
Samples were collected from Test solution II at 0 day, at one month under the intermediate condition (30° C./65% RH) and at one month under the accelerated condition (40° C./75% RH). 0.2% self-control solution was formulated. Samples were injected respectively, and the single impurity content and total impurity content in test solution II at this time point were calculated according to the self-control. […]

[1] = Accelerated condition (40° C./75% RH) one month
[2] = Intermediate condition (30° C./65% RH) one month

Total impurity (%) [1]: 1.038%
Impurity (%)/RRT relative retention time 0.71 [1]: 0.005%
Impurity (%)/RRT relative retention time 0.78 [1]: 0.792%
Impurity (%)/RRT relative retention time 0.83 [1]: 0.02%
Impurity (%)/RRT relative retention time 0.89 [1]: 0.018%
Impurity (%)/RRT relative retention time 0.9 [1]: 0.012%
Impurity (%)/RRT relative retention time 1.06 [1]: 0.173%
Impurity (%)/RRT relative retention time 1.95 [1]: 0.018%
Total impurity (%) [2]: 0.333%
Impurity (%)/RRT relative retention time 0.78 [2]: 0.117%
Impurity (%)/RRT relative retention time 0.89 [2]: 0.018%
Impurity (%)/RRT relative retention time 0.9 [2]: 0.011%
Impurity (%)/RRT relative retention time 1.06 [2]: 0.169%
Impurity (%)/RRT relative retention time 1.95 [2]: 0.018%
Total impurity (%) (Storage time 0 h(RT)): 0.192%
Impurity (%)/RRT relative retention time 0.89 (Storage time 0 h(RT)): 0.055%
Impurity (%)/RRT relative retention time 0.9 (Storage time 0 h(RT)): 0.055%
Impurity (%)/RRT relative retention time 0.93 (Storage time 0 h(RT)): 0.082%
Total impurity (%) (Storage time 0 day): 0.261%
Impurity (%)/RRT relative retention time 0.78 (Storage time 0 day): 0.042%
Impurity (%)/RRT relative retention time 0.89 (Storage time 0 day): 0.019%
Impurity (%)/RRT relative retention time 0.9 (Storage time 0 day): 0.011%
Impurity (%)/RRT relative retention time 1.06 (Storage time 0 day): 0.17%
Impurity (%)/RRT relative retention time 1.95 (Storage time 0 day): 0.019%
Total impurity (%) (Storage time 6 h(RT)): 0.739%
Impurity (%)/RRT relative retention time 0.71 (Storage time 6 h(RT)): 0.18%
Impurity (%)/RRT relative retention time 0.89 (Storage time 6 h(RT)): 0.059%
Impurity (%)/RRT relative retention time 0.9 (Storage time 6 h(RT)): 0.069%
Impurity (%)/RRT relative retention time 0.93 (Storage time 6 h(RT)): 0.091%
Impurity (%)/RRT relative retention time 1.95 (Storage time 6 h(RT)): 0.089%
Impurity (%)/RRT relative retention time 1.97 (Storage time 6 h(RT)): 0.251%
Total impurity (%) (Storage time 12 h(RT)): 0.733%
Impurity (%)/RRT relative retention time 0.71 (Storage time 12 h(RT)): 0.176%
Impurity (%)/RRT relative retention time 0.89 (Storage time 12 h(RT)): 0.053%
Impurity (%)/RRT relative retention time 0.9 (Storage time 12 h(RT)): 0.063%
Impurity (%)/RRT relative retention time 0.93 (Storage time 12 h(RT)): 0.092%
Impurity (%)/RRT relative retention time 1.95 (Storage time 12 h(RT)): 0.093%
Impurity (%)/RRT relative retention time 1.97 (Storage time 12 h(RT)): 0.256%
Total impurity (%) (Storage time 18 h(RT)): 1.035%
Impurity (%)/RRT relative retention time 0.71 (Storage time 18 h(RT)): 0.174%
Impurity (%)/RRT relative retention time 0.83 (Storage time 18 h(RT)): 0.377%
Impurity (%)/RRT relative retention time 0.89 (Storage time 18 h(RT)): 0.054%
Impurity (%)/RRT relative retention time 0.9 (Storage time 18 h(RT)): 0.057%
Impurity (%)/RRT relative retention time 0.93 (Storage time 18 h(RT)): 0.092%
Impurity (%)/RRT relative retention time 1.95 (Storage time 18 h(RT)): 0.065%
Impurity (%)/RRT relative retention time 1.97 (Storage time 18 h(RT)): 0.216%
Total impurity (%) (Storage time 24 h(2-8° C.)): 0.608%
Impurity (%)/RRT relative retention time 0.71 (Storage time 24 h(2-8° C.)): 0.175%
Impurity (%)/RRT relative retention time 0.83 (Storage time 24 h(2-8° C.)): 0.189%
Impurity (%)/RRT relative retention time 0.89 (Storage time 24 h(2-8° C.)): 0.053%
Impurity (%)/RRT relative retention time 0.9 (Storage time 24 h(2-8° C.)): 0.064%
Impurity (%)/RRT relative retention time 0.93 (Storage time 24 h(2-8° C.)): 0.088%
Impurity (%)/RRT relative retention time 1.06 (Storage time 24 h(2-8° C.)): 0.039%
Total impurity (%) (Storage time 24 h(RT)): 1.254%
Impurity (%)/RRT relative retention time 0.71 (Storage time 24 h(RT)): 0.177%
Impurity (%)/RRT relative retention time 0.83 (Storage time 24 h(RT)): 0.524%
Impurity (%)/RRT relative retention time 0.89 (Storage time 24 h(RT)): 0.054%
Impurity (%)/RRT relative retention time 0.9 (Storage time 24 h(RT)): 0.053%
Impurity (%)/RRT relative retention time 0.93 (Storage time 24 h(RT)): 0.09%
Impurity (%)/RRT relative retention time 1.95 (Storage time 24 h(RT)): 0.097%
Impurity (%)/RRT relative retention time 1.97 (Storage time 24 h(RT)): 0.259%
Structure (SMILES): CC(C)C(=O)N1CCC[C@H]1C(=O)OCOc1ccc([N+](=O)[O-])c2cccnc12 [nitroxoline prodrug, (S)-(5-nitroquinolin-8-yloxy)methyl 1-isopropionylpyrrolidine-2-carboxylate]
